Reference: US11478475B2, “Inhibitor of histone deacetylase 6 in the treatment of t-cell acute lymphoblastic leukemia (T-ALL) and other neoplasia with high expression of notch-3” (ISTITUTO ONCOLOGICO VENETO IOV-IRCCS, priority 2017, dated 2022)
Residues, ends and D or L forms follow the SMILES beside them. *: point of attachment. Cbz = O=C(OCc1ccccc1)*

Key:
[1] = test system: Notch3 receptor; assay: Western blotting of Notch3 protein in T-ALL cell lines; type: cell-based, human; settings: 16 hours; for Notch3 protein levels, inhibitor added to TSA: MOLT3 and TALL1 cells, with proteasome or lysosome inhibitor
Description: In particular, in FIG. 1A is shown the three cell lines of T-ALL MOLT3, Jurkat and DND41 were treated for 16 hours in vitro with TSA 500 nM.
MOLT3 cells shown in FIG. 3A and TALL1 cells shown in FIG. 3B were treated with TSA 500 nM for 16 hours, and simultaneously in the presence or absence of a proteasome (MG132) or lysosome (chloroquine—CHL) inhibitor. […] The numbers below the bands refer to densitometric analysis.
In FIG. 4A, T-ALL cell lines and primary cells were treated in vitro for 16 hours with the HDAC6 inhibitor Tubacin (2 μM, TUB), HDAC1 inhibitor (2 μM, HDAC1i), or HDAC8 inhibitor (2 μM, HDAC8i). […] In FIG. 4C, the three cell lines of T-ALL MOLT3, Jurkat and DND41 (left) and n=3 primary lines (right) were treated for 24 hours in vitro with the compounds previously described, and cell death was evaluated by marking with Annexin V and analysis by cytofluorometer (*P<0.05, **P<0.01, ***P<0.001, mean±SD of three independent experiments).
(§1) In FIGS. 6A-6C, MOLT3 and TALL1 cell lines were infected with two different lentiviruses that block HDAC6 expression (shHDAC6 #1 and #2).
(§2) In FIG. 8A, JURKAT cells were treated in vitro with rocilinostat at a concentration of 8 μM for 16 hours.

[2] = test system: Notch3 receptor present in the membrane; assay: Cytofluorometric analysis of Notch3 membrane expression in T-ALL cells; type: cell-based, human
[3] = test system: Notch3 receptor; assay: Notch3 protein levels in patient-derived primary T-ALL lines; type: cell-based, human; settings: n=7 patient-derived primary lines; TSA 500 nM, 16 hours
Description: Initially we treated 3 T-ALL cell lines in the laboratory with Tricostatin A (TSA), a generic commercial inhibitor that inhibits the whole class of HDACs that is commonly used in experimental practices. […] The same result was obtained by treating 7 patient-derived primary lines in vitro with TSA.
(§3) In particular, in FIG. 1A is shown the three cell lines of T-ALL MOLT3, Jurkat and DND41 were treated for 16 hours in vitro with TSA 500 nM. The western blotting confirms the decrease of the full length (FL) Notch3 receptor after treatment. Inhibition of HDACs is confirmed by the increase of acetylated tubulin (Ac. α Tub.). […] The treatment with TSA is accompanied by a decrease in the target genes pTα, CR2, DTX-1 in the cell lines shown in FIG. 1D and in the primary cells shown in FIG. 1E. (*P<0.05, **P<0.01, ***P<0.001, mean±SD of three independent experiments).

[4] = test system: Jurkat, MOLT3 and TALL1 cells; assay: Cell death by luminescence assay for caspase activation; type: cell-based, human; settings: TSA 500 nM, 24 hours
Description: (§4) In FIG. 2A and the 7 primary lines shown in FIG. 2B were treated for 24 hours in vitro with TSA 500 nM. Cell death was evaluated by marking with annexin V and analysis with the cytofluorometer. Proliferation inhibition shown in FIG. 2C was assessed in the MOLT3 line by cell count (left panel) and MTS assay (right panel). In FIG. 2D, the Jurkat cells were infected with a control virus (RV-CNTR) or with an expressing Notch3 virus (RV-N3) and subsequently treated with TSA 500 nM for 24 hours. Cell death was evaluated by a luminescence assay for caspase activation (*P<0.05, **P<0.01, ***P<0.001, mean±SD of three independent experiments).
as §1

[5] = test system: target genes pTα, CR2, DTX-1; assay: Expression of Notch target genes in T-ALL cell lines and primary cells; type: cell-based, human
Description: as §3
(§5) In FIG. 4A, T-ALL cell lines and primary cells were treated in vitro for 16 hours with the HDAC6 inhibitor Tubacin (2 μM, TUB), HDAC1 inhibitor (2 μM, HDAC1i), or HDAC8 inhibitor (2 μM, HDAC8i). Treatment with Tubacin is shown in FIG. 4B, but not with the other inhibitors, is accompanied by a decrease in the target genes pTα, CR2, DTX-1. In FIG. 4C, the three cell lines of T-ALL MOLT3, Jurkat and DND41 (left) and n=3 primary lines (right) were treated for 24 hours in vitro with the compounds previously described, and cell death was evaluated by marking with Annexin V and analysis by cytofluorometer (*P<0.05, **P<0.01, ***P<0.001, mean±SD of three independent experiments).

[6] = test system: acetylated tubulin (Ac. α Tub.); assay: Western blotting of acetylated tubulin in T-ALL cell lines; type: cell-based, human; settings: 16 hours
Description: as §3, §2

[7] = test system: T-ALL cell lines and primary lines; assay: Cell death by annexin V marking and cytofluorometer in T-ALL cells; type: cell-based, human; settings: 24 hours
Description: as §4, §5
In FIG. 5 the T-ALL cell lines were treated in vitro for 24 hours with the HDAC6 Tubacin inhibitor (2 μM, TUB) and cell death was assessed by marking with Annexin V and analysis by cytofluorometer (*P<0.05, **P<0.01, ***P<0.001, mean±SD of three independent experiments).
as §2

[8] = test system: MOLT3 line; assay: Proliferation by cell count and MTS assay; type: cell-based, human; settings: TSA
Description: as §4

[9] = test system: Notch3 and the lysosomal marker LAMP2; assay: Immunofluorescence analysis of Notch3/LAMP2 co-localization; type: cell-based; settings: after treatment with TSA, N=21 cells
[10] = test system: TALL1 cells; assay: Cytotoxicity seen as reduction of actin in Western blot; type: cell-based, human; settings: 20 μM
[11] = test system: two T-ALL cell lines; assay: Cell viability by ATPlite assay; type: cell-based, human; settings: 48 hours, indicated concentrations
[12] = test system: Notch3; assay: Cytofluorometric evaluation of Notch3 expression in MDA-MB-468 cells; type: cell-based
Description: The graph of FIG. 12 confirms the reduction of Notch3 expression in MDA-MB-468 cell membrane after treatment with rocilinostat (8 μM) at 24 hours, in accordance with the results of the WB.
For the assay of FIG. 13, the following protocol was used:
(§6) Day 1: coating of plate with Notch ligands (ligand concentration 4 ng/uL)
(§7) Day 3 treatment with rocilinostat (16 μM) or control (DMSO)
Day 4: Marking+reading by cytofluorometer

[13] = test system: Notch3; assay: Cytofluorometric evaluation of Notch3 membrane expression in HCC-1143 cells; type: cell-based
Description: The following protocol was used for the graphs of FIG. 18:
as §6, §7
Day 4: marking+reading by cytofluorometer

[14] = test system: Notch3; assay: Western blotting of Notch3 in MDA-MB-468 cells; type: cell-based; settings: 8 μM
Description: (§8) In the assay of FIG. 11, Rocilinostat (ACY 1215) is used at a concentration of 8 μM in MDA-MB-468 cells. The expression of Notch3 and other markers was evaluated in cellular lysate by Western blotting.

[15] = test system: MDA-MB-468 breast cancer cells; assay: Cell mortality by Annexin V/propidium iodide in MDA-MB-468 cells; type: cell-based; settings: 16 μM
Description: For the assay of FIG. 14, the following protocol was used:
(§9) Day 1: coating (ligand concentration 4 ng/uL)
(§10) Day 3 treatment with 16 μM rocilinostat
Day 5: marking with Annexin V/propidium iodide+reading of mortality by cytofluorometer

[16] = test system: acetylated tubulin; assay: Acetylated tubulin levels in HCC-1143 cells; type: cell-based; settings: 8 μM, 24 hours
Description: (§11) To evaluate the effects of rocilinostat on Notch3 expression in HCC-1143 cells, HCC-1143 cells were treated in vitro with rocilinostat at a concentration of 8 μM for 24 hours. […] The increase in acetylated tubulin levels confirms the activity of rocilinostat.

[17] = test system: HCC1143 breast cancer cells; assay: Cell mortality by Annexin V/propidium iodide in HCC-1143 cells; type: cell-based; settings: 16 μM
Description: For the graphs of FIG. 19, the following protocol was used:
as §9, §10
Day 5: marking with Annexin V/propidium iodide+reading of mortality by cytofluorometer.

[18] = test system: NOTCH3 FL protein; assay: Notch3 FL protein levels in HCC-1143 cells; type: cell-based; settings: 8 μM, 24 hours
Description: as §11

[19] = test system: HCC-1143 cells; assay: Dose-response growth curve in HCC-1143 cells; type: cell-based
[20] = test system: HDAC6; assay: Western blotting, inhibition of the target HDAC6 in MDA-MB-468 cells; type: cell-based; settings: 8 μM
Description: as §8

[21] = MOLT3, Jurkat and DND41, TSA 500 nM

CCN(CC)CCCC(C)Nc1ccnc2cc(Cl)ccc12 (stereo not drawn) [Chloroquine, chloroquine]
Notch3 protein levels, inhibitor added to TSA ([1]; TSA 500 nM): decrease of Notch3 blocked

CC(/C=C/C(=O)NO)=C\[C@@H](C)C(=O)c1ccc(N(C)C)cc1 [TSA, Tricostatin A]
Notch3 receptor present in the membrane ([2]; Jurkat cells, Notch2/3 antibody, cytofluorometer, TSA): decrease | Notch3 receptor protein levels [3]: confirming the result seen in the cell lines | cell death (caspase activation) after restoring Notch3 levels (RV-N3 vs RV-CNTR) [4]: die significantly less | target genes pTα, CR2, DTX-1 ([5]; cell lines and primary cells, treatment with TSA): decrease | full length (FL) Notch3 receptor, western blotting [1, 21]: decrease | acetylated tubulin (Ac. α Tub.) [6, 21]: increase | cell death (annexin V) ([7]; T-ALL cell lines and 7 primary lines, TSA 500 nM): induction of cell death | proliferation (cell count, MTS assay) [8]: inhibition of proliferation | co-localization between Notch3 and LAMP2 [9]: increase in co-localization

O=C(CCCCCCC(=O)Nc1ccc([C@H]2O[C@@H](CSc3nc(-c4ccccc4)c(-c4ccccc4)o3)C[C@@H](c3ccc(CO)cc3)O2)cc1)NO [Tubacin]
target genes pTα, CR2, DTX-1 ([5]; T-ALL cells, 2 μM, 16 hours): decrease | decrease in Notch3 protein levels ([1]; T-ALL cell lines and primary cells, 2 μM): effects comparable to the generic TSA inhibitor | cell death (annexin V) ([7]; MOLT3, Jurkat, DND41 and n=3 primary lines, 2 μM): effects comparable to the generic TSA inhibitor | sensitivity of TALL1 cell line compared with other cell lines (cell death, Annexin V) ([7]; Tubacin 2 μM): significantly more sensitive

CC(C)C[C@H](NC(=O)[C@H](Cc1ccccc1)NC(=O)c1cnccn1)B(O)O [Bortezomib]
Notch3 expression ([2]; TALL1 cells, 20 μM): negative effect | cytotoxicity (reduction of actin in Western blot) [10]: high cytotoxicity

CC(C)C[C@@H](C=O)NC(=O)[C@H](CC(C)C)NC(=O)[C@H](CC(C)C)NC(=O)OCc1ccccc1 [MG132] (Cbz-Leu-Leu-Leu-aldehyde)
Notch3 protein levels, inhibitor added to TSA ([1]; TSA 500 nM): further lowers

O=C(CCCCCCNC(=O)c1cnc(N(c2ccccc2)c2ccccc2)nc1)NO [rocilinostat, ricolinostat]
cell viability (ATPlite assay) [11]: marked negative effect on cell growth | Notch3 membrane expression ([2]; TALL1 cells, 8 μM, 16 hours): reduces | Notch3 expression in cell membrane ([12]; 8 μM, 24 hours): reduction | Notch3 expression, intensity of expression (MFI) ([12]; 16 μM): marked negative effect | Notch3 expression, percentage of positive cells (%) ([12]; 16 μM): marked negative effect | effect on Notch3 expression in the presence of Notch ligands (JAG1 and DLL4) ([12]; 16 μM, ligand 4 ng/uL): not substantially affected | Notch3 expression, intensity of expression (MFI) ([13]; 16 μM): more evident | Notch3 expression, percentage of positive cells (%) ([13]; 16 μM): moderate negative effect | effects on Notch3 expression in the presence of Notch ligands (JAG1 and DLL4) ([13]; 16 μM, ligand 4 ng/uL): not much influenced | Notch3 membrane expression ([13]; rocilinostat alone): reduction | Notch3 expression, Western blotting ([14]; 16 hours): not reduced | Notch3 expression, Western blotting ([14]; 24 hours): drop in Notch3 | cell mortality (Annexin V/propidium iodide) ([15]; Day 3 to Day 5): causes the death | cell mortality in the presence of Notch ligands (JAG1 and DLL4) ([15]; ligand 4 ng/uL): maintained or slightly increased | acetylated tubulin levels [16]: increase | levels of the NOTCH3 FL protein, Western blotting ([1]; JURKAT cells, 8 μM): decreases | cell mortality (Annexin V/propidium iodide) ([17]; Day 3 to Day 5): causes the death | cell mortality in the presence of Notch ligands (JAG1 and DLL4) ([17]; ligand 4 ng/uL): maintained | levels of NOTCH3 FL protein [18]: decreases | acetylated tubulin levels ([6]; JURKAT cells, 8 μM): increase | apoptosis (annexin V) ([7]; JURKAT and TALL1, 8 μM): strong increase of cell death | growth of HCC-1143 cells (dose-response curve) [19]: inhibits the growth of HCC-1143 cells with dose-dependent effects | target (HDAC6) inhibition ([20]; 16 hours): inhibited | target (HDAC6) inhibition ([20]; 24 hours): inhibited | target (HDAC6) inhibition ([20]; 48 hours): no longer inhibited
